According to patent publication US10851064B2, “ACSS2 inhibitors and methods of use thereof” (METABOMED LTD., priority 2017, dated 2020):
Several values for one entry are separate records, joined by “and”; a condition that tells them apart may be missing. Identical values can stand only once.

Key:
ACSS2 [1] = biological target: T1, ACSS2 (Homo sapiens, UniProt Q9NR19); assay: biochemical
ACSS2 [2] = biological target: T1, ACSS2; assay: cell-based
Method: (§1) ACSS2 Cellular Activity Assay (Cellular IC50)
(§2) The cellular activity of ACSS2 was based on tracing the incorporation of carbons from ^13C-Acetate into fatty-acids.
(§3) BT474/MDA-MB-468 cells growing in DMEM+25 mM D-glucose+1 mM sodium pyruvate+10% FBS+2 mM glutamine were plated in 12-well plates at 0.4×10^6 cells/well. The cells were then incubated at CO2 incubator for 24 hrs at hypoxic conditions (1% O2) before treated with compounds. At day 2, the medium was replaced to DMEM medium containing 15 mM Glucose, 1 mM Pyruvate, 0.65 mM Glutamine, 1% Dialyzed serum, 3.5 ug/ml Biotin, 0.2 mM ^13C-Acetate and various concentrations of the compounds. The cells were incubated for 5 hours at CO2 incubator in hypoxic conditions (1% O2). At the end of the 5 hours' incubation, the cells were washed twice with cold PBS, harvested in 1 ml PBS and transfer into V-shaped HPLC glass vials and centrifuge for 10 min at 600 g at 4 C. The supernatant was removed, and the cells' pellets were stored at −80° C. until taken for saponification.
(§4) The cells pellets were resuspended with 0.5 ml of the 90% Methanol, 10% H2O, 0.3M NaOH mixture and incubated at 80° C. for 60 min. Following the incubation, 50 μl formic acid and 0.4 ml hexane were added and the mixture was vortexed for 2 minutes. The vials were left few minutes for phases separation and then 200 μl of the top hexane phase extracted to a new glass vial. The hexane was dried under nitrogen and reconstituted in 100 μl of Methanol:Acetonitrile 5:3 mixture. The solution transferred to Eppendorf tubes, spun down at 17000 G for 20 min and transferred to LC-MS vials.
(§5) The analysis was performed with Thermo Q Exactive mass spectrometer with HESI probe and Dionex Ultimate 3000 UHPLC system. The separations were performed on Phenomenex Kintex 2.6u XB-C18 100A 150×2.10 mm column by injecting 5 ul of each sample. The chromatography started with a linear gradient from 85% to 100% of organic solvent (Methanol:Acetonitrile 1:1) versus 10 mM Ammonium Acetate buffer pH 4.7 for 3.5 minutes, followed by 4.5 minutes of isocratic 100% organic solvent and then 3 minutes of isocratic initial conditions, at a flow rate of 0.3 ul/min. The MS source conditions that were used: capillary temperature 325° C., sheath flow 25, aux flow 15, spray voltage 3.8 kV, aux temperature 300° C. The data collected from Negative ion mode at resolution of 70000 at Full-MS mode in 75-1000 m/z range.
(§6) The analysis of ^13C acetate incorporation into fatty acids (palmitate, myristate and stearate) performed on TraceFinder 3.2.512.0. The negative control areas and ^13C isotopic theoretical natural abundance were subtracted from the samples areas. Total ^13C incorporation for each fatty-acid (palmitate, myristate and stearate) was calculated and presented as percentage of the total amount.

ACSS2 [3] = biological target: T1, ACSS2; assay: cell-based; remark: listed apart in the source
Method: as §1, §2, §3, §4, §5, §6

ACSS2 [4] = biological target: T1, ACSS2; assay: cell-based; remark: listed apart in the source
Method: Testing the inhibitory effect of compounds on the cellular activity of ACSS2 was done by tracing the incorporation of ^13C from ^13C-acetate into fatty-acids in MDA-MB-468 cells under hypoxic conditions of 1% 02. The assay was done for 5 hours in DMEM with 5.5 mM glucose, 1 mM sodium Pyruvate, 0.65 mM Glutamine, 3.5 ug/ml Biotin, 1% dialyzed serum, 0.5 mM 13C-acetate and with different concentrations of the inhibitors. At the end of the incubation, the cells were washed with cold PBS, harvested into glass tubes and undergo saponification. The level of ^13C incorporation into Palmitate was done by LC-MS analysis and the level of inhibition was calculated with PRISM software.

T1 sequence (Q9NR19 whole entry): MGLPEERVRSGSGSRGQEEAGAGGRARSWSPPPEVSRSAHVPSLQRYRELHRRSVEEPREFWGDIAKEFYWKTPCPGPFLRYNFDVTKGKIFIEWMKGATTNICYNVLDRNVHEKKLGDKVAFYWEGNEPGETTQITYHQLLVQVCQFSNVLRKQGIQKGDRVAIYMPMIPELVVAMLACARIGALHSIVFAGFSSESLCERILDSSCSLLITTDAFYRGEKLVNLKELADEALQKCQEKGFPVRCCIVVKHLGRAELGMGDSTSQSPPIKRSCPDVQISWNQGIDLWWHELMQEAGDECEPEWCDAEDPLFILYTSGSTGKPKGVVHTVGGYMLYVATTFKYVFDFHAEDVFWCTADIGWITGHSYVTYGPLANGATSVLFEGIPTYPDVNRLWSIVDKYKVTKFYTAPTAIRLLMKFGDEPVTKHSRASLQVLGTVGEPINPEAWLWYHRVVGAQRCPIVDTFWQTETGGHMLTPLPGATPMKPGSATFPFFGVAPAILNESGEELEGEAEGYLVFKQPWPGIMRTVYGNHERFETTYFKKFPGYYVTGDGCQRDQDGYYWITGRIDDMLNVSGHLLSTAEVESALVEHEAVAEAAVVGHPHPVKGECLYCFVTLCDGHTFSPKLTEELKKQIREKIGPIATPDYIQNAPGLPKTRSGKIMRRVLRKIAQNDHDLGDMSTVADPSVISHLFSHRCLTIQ

CC1=NN(c2ccccc2)C(=O)C1C(=O)Nc1cccc(-c2ncc[nH]2)c1 (stereo not shown) [compound 107, N-(3-(1H-imidazol-2-yl)phenyl)-3-methyl-5-oxo-1-phenyl-4,5-dihydro-1H-pyrazole-4-carboxamide]
IC50 (ACSS2 [1]): 6 to 100 nM
IC50 (ACSS2 [2]): ≥ 1000 nM and 100 to 1000 nM
IC50 (ACSS2 [3]): 100 to 1000 nM
IC50 (ACSS2 [4]): 0.5 to 50 nM

CC1=NN(c2ccccc2)C(=O)C1C(=O)Nc1cccc(-c2ccco2)c1 (stereo not shown) [compound 108, N-(3-(furan-2-yl)phenyl)-3-methyl-5-oxo-1-phenyl-4,5-dihydro-1H-pyrazole-4-carboxamide]
IC50 (ACSS2 [1]): 0.01 to 6 nM
IC50 (ACSS2 [2]): < 100 nM
IC50 (ACSS2 [3]): < 100 nM
IC50 (ACSS2 [4]): 0.5 to 50 nM

CC1=NN(c2ccccc2)C(=O)C1C(=O)Nc1cccc(-c2cnccn2)c1 (stereo not shown) [compound 109, 3-methyl-5-oxo-1-phenyl-N-(3-(pyrazin-2-yl)phenyl)-4,5-dihydro-1H-pyrazole-4-carboxamide]
IC50 (ACSS2 [1]): 0.01 to 6 nM
IC50 (ACSS2 [2]): 100 to 1000 nM
IC50 (ACSS2 [4]): 50 to 100 nM

CCCC(=O)c1cccc(NC(=O)C2C(=O)N(c3ccccc3)N=C2C)c1 (stereo not shown) [compound 114, N-(3-butyrylphenyl)-3-methyl-5-oxo-1-phenyl-4,5-dihydro-1H-pyrazole-4-carboxamide]
IC50 (ACSS2 [1]): 6 to 100 nM
IC50 (ACSS2 [2]): ≥ 1000 nM and 100 to 1000 nM

CCC(=O)c1cccc(NC(=O)C2C(=O)N(c3ccccc3)N=C2C)c1 (stereo not shown) [compound 117, 3-methyl-5-oxo-1-phenyl-N-(3-propionylphenyl)-4,5-dihydro-1H-pyrazole-4-carboxamide]
IC50 (ACSS2 [1]): 0.01 to 6 nM
IC50 (ACSS2 [2]): < 100 nM and 100 to 1000 nM
IC50 (ACSS2 [4]): 0.5 to 50 nM

CC1=NN(c2ccccc2)C(=O)C1C(=O)Nc1cccc(C2CC2)c1 (stereo not shown) [compound 119, N-(3-cyclopropylphenyl)-3-methyl-5-oxo-1-phenyl-4,5-dihydro-1H-pyrazole-4-carboxamide]
IC50 (ACSS2 [1]): 0.01 to 6 nM
IC50 (ACSS2 [2]): 100 to 1000 nM
IC50 (ACSS2 [4]): 0.5 to 50 nM

CC1=NN(c2ccccc2)C(=O)C1C(=O)Nc1cccc(-c2ncco2)c1 (stereo not shown) [compound 124, 3-methyl-N-(3-(oxazol-2-yl)phenyl)-5-oxo-1-phenyl-4,5-dihydro-1H-pyrazole-4-carboxamide]
IC50 (ACSS2 [1]): 6 to 100 nM
IC50 (ACSS2 [2]): 100 to 1000 nM
IC50 (ACSS2 [3]): 100 to 1000 nM
IC50 (ACSS2 [4]): > 100 nM

CCc1cccc(NC(=O)C2C(=O)N(c3ccc(OC)cc3)N=C2C)c1 (stereo not shown) [compound 138, N-(3-ethylphenyl)-1-(4-methoxyphenyl)-3-methyl-5-oxo-4,5-dihydro-1H-pyrazole-4-carboxamide]
IC50 (ACSS2 [1]): 6 to 100 nM
IC50 (ACSS2 [2]): 100 to 1000 nM
IC50 (ACSS2 [4]): 0.5 to 50 nM

CC1=NN(c2cccc(C(=O)O)c2)C(=O)C1C(=O)Nc1cccc(-c2ccco2)c1 (stereo not shown) [compound 159, 3-(4-((3-(furan-2-yl)phenyl)carbamoyl)-3-methyl-5-oxo-4,5-dihydro-1H-pyrazol-1-yl)benzoic acid]
IC50 (ACSS2 [1]): 6 to 100 nM
IC50 (ACSS2 [3]): ≥ 1000 nM
IC50 (ACSS2 [4]): > 100 nM

CC1=NN(c2cccc(C(F)(F)F)c2)C(=O)C1C(=O)Nc1cccc(-c2ccco2)c1 (stereo not shown) [compound 165]
IC50 (ACSS2 [1]): 0.01 to 6 nM
IC50 (ACSS2 [3]): < 100 nM
IC50 (ACSS2 [4]): 0.5 to 50 nM

CC1=NN(c2cccc(C(F)(F)F)c2)C(=O)C1C(=O)Nc1cccc(-c2cnccn2)c1 (stereo not shown) [compound 166, 3-methyl-5-oxo-N-(3-(pyrazin-2-yl)phenyl)-1-(3-(trifuoromethyl)phenyl)-4,5-dihydro-1H-pyrazole-4-carboxamide]
IC50 (ACSS2 [1]): 0.01 to 6 nM
IC50 (ACSS2 [3]): < 100 nM (2×) and 100 nM to 1 µM
IC50 (ACSS2 [4]): > 100 nM

CCc1cccc(NC(=O)C2C(=O)N(c3ccc4c(c3)OCO4)N=C2C)c1 (stereo not shown) [compound 168]
IC50 (ACSS2 [1]): 6 to 100 nM
IC50 (ACSS2 [3]): 100 to 1000 nM
IC50 (ACSS2 [4]): 0.5 to 50 nM

CC1=NN(c2cccc(C(=O)O)c2)C(=O)C1C(=O)Nc1cccc(-c2cnccn2)c1 (stereo not shown) [compound 169]
IC50 (ACSS2 [1]): 6 to 100 nM
IC50 (ACSS2 [3]): ≥ 1000 nM
IC50 (ACSS2 [4]): > 100 nM

CC(=O)c1cccc(NC(=O)C2C(=O)N(c3ccccc3)N=C2C)c1 (stereo not shown) [compound 183, N-(3-acetylphenyl)-3-methyl-5-oxo-1-phenyl-4,5-dihydro-1H yrazole-4-carboxamide]
IC50 (ACSS2 [1]): 6 to 100 nM
IC50 (ACSS2 [2]): ≥ 1000 nM

CCc1cccc(NC(=O)C2C(=O)N(c3ccccc3)N=C2C)c1 (stereo not shown) [compound 184, N-(3-ethylphenyl)-3-methyl-5-oxo-1-phenyl-4,5-dihydro-1H-pyrazole-4-carboxamide]
IC50 (ACSS2 [1]): 6 to 100 nM
IC50 (ACSS2 [2]): 100 to 1000 nM

COC(=O)c1cccc(NC(=O)C2C(=O)N(c3ccccc3)N=C2C)c1 (stereo not shown) [compound 206, 3-(3-methyl-5-oxo-1-phenyl-4,5-dihydro-1H-pyrazole-4-carboxamido)benzoate]
IC50 (ACSS2 [1]): 0.01 to 6 nM
IC50 (ACSS2 [2]): 100 to 1000 nM
IC50 (ACSS2 [4]): 50 to 100 nM

CC1=NN(c2ccccc2)C(=O)C1C(=O)Nc1cccc(C(F)(F)F)c1 (stereo not shown) [compound 208, 3-methyl-5-oxo-1-phenyl-N-(3-(trifluoromethyl)phenyl)-4,5-dihydro-1H-pyrazole-4-carboxamide]
IC50 (ACSS2 [1]): 6 to 100 nM
IC50 (ACSS2 [2]): ≥ 1000 nM and 100 to 1000 nM
IC50 (ACSS2 [4]): > 100 nM

CC1=NN(c2ccccc2)C(=O)C1C(=O)Nc1cccc(Br)c1 (stereo not shown) [compound 215, N-(3-bromophenyl)-3-methyl-5-oxo-1-phenyl-4,5-dihydro-1H-pyrazole-4-carboxamide]
IC50 (ACSS2 [1]): 6 to 100 nM
IC50 (ACSS2 [2]): 100 to 1000 nM

CC1=NN(c2cccc(-c3ncco3)c2)C(=O)C1C(=O)Nc1cccc(-c2ncc[nH]2)c1 (stereo not shown) [compound 279]
IC50 (ACSS2 [1]): 6 to 100 nM
IC50 (ACSS2 [4]): > 100 nM

CC1=NN(c2cccc(-c3nnc(C)o3)c2)C(=O)C1C(=O)Nc1cccc(C(C)(F)F)c1 (stereo not shown) [compound 280]
IC50 (ACSS2 [1]): 0.01 to 6 nM
IC50 (ACSS2 [4]): 0.5 to 50 nM

[2H]C([2H])([2H])Oc1ccc(N2N=C(C)C(C(=O)Nc3cccc(C(C)(F)F)c3)C2=O)cc1 (stereo not shown) [compound 286]
IC50 (ACSS2 [1]): 0.01 to 6 nM
IC50 (ACSS2 [4]): 0.5 to 50 nM

COc1ccc(N2N=C(C)C(C(=O)Nc3cccc(C(C)(F)F)c3)C2=O)cc1OC (stereo not shown) [compound 287]
IC50 (ACSS2 [1]): 0.01 to 6 nM
IC50 (ACSS2 [4]): 0.5 to 50 nM

CC1=NN(c2cccc(-c3nccn3C)c2)C(=O)C1C(=O)Nc1cccc(C(C)(F)F)c1 (stereo not shown) [compound 289]
IC50 (ACSS2 [1]): 0.01 to 6 nM
IC50 (ACSS2 [4]): 0.5 to 50 nM

CC1=NN(c2ccc(OC(F)(F)F)c(-c3ncco3)c2)C(=O)C1C(=O)Nc1cccc(C(C)(F)F)c1 (stereo not shown) [compound 291]
IC50 (ACSS2 [1]): 0.01 to 6 nM
IC50 (ACSS2 [4]): 0.5 to 50 nM

CC1=NN(c2ccc(OC(F)(F)F)c(-c3ncco3)c2)C(=O)C1C(=O)Nc1cccc(-c2ccco2)c1 (stereo not shown) [compound 292]
IC50 (ACSS2 [1]): 0.01 to 6 nM
IC50 (ACSS2 [4]): 0.5 to 50 nM

CC1=NN(c2ccc(-c3nnn[nH]3)cc2)C(=O)C1C(=O)Nc1cccc(C(C)(F)F)c1 (stereo not shown) [compound 297]
IC50 (ACSS2 [1]): 0.01 to 6 nM
IC50 (ACSS2 [4]): > 100 nM

CC1=NN(c2ccc(OC(F)F)cc2)C(=O)C1C(=O)Nc1cccc(C(C)(F)F)c1 (stereo not shown) [compound 298]
IC50 (ACSS2 [1]): 0.01 to 6 nM
IC50 (ACSS2 [4]): 0.5 to 50 nM

COc1ccc(N2N=C(C)C(C(=O)Nc3cccc(C(C)(F)F)c3)C2=O)cc1-c1nccn1C (stereo not shown) [compound 300]
IC50 (ACSS2 [1]): 0.01 to 6 nM
IC50 (ACSS2 [4]): 0.5 to 50 nM

COc1ccc(N2N=C(C)C(C(=O)Nc3cccc(C(C)(F)F)c3)C2=O)cc1-c1ncco1 (stereo not shown) [compound 301]
IC50 (ACSS2 [1]): 0.01 to 6 nM
IC50 (ACSS2 [4]): 0.5 to 50 nM

COc1ccc(N2N=C(C)C(C(=O)Nc3cccc(C(C)(F)F)c3)C2=O)cc1C (stereo not shown) [compound 303]
IC50 (ACSS2 [1]): 0.01 to 6 nM
IC50 (ACSS2 [4]): 0.5 to 50 nM

COc1ccc(N2N=C(C)C(C(=O)Nc3cccc(C(C)(F)F)c3)C2=O)nc1 (stereo not shown) [compound 304]
IC50 (ACSS2 [1]): 0.01 to 6 nM
IC50 (ACSS2 [4]): 0.5 to 50 nM
